Data from paper PMC7078479, “Sulfamoyl Heteroarylcarboxylic Acids as Promising Metallo-β-Lactamase Inhibitors for Controlling Bacterial Carbapenem Resistance” (mBio, 2020).
pKi: −log10 of the molar value.

How the values were obtained:
[1] = system: IMP producers rather than NDM/VIM producers; conditions: cited from earlier work
[2] = system: E. coli DH5α/pBC-VIM-2; test: Susceptibility and checkerboard testing, VIM-2-producing E. coli; format: cell-based, Escherichia coli; conditions: Escherichia coli, read-out: MIC of CAZ without inhibitor
Description: MICs were determined via the microdilution method according to the CLSI guidelines ([38]). In brief, 5 × 10^4 bacterial cells were inoculated in 100 μl of cation-adjusted Mueller-Hinton broth (Becton, Dickinson and Company, Franklin Lakes, NJ) containing the β-lactams and appropriately diluted inhibitors. The final concentration of DMSO was maintained at 2% in the assays. The tested plates were then incubated at 35°C for 16 to 20 h. The MIC value was determined as the lowest concentration of tested β-lactams where no bacterial growth was visibly observed. The optical density at 600 nm (OD600) value was measured using a plate reader for drawing the heat maps. The FIC index value was calculated using the following equation: FIC index=MIC of β-lactam with inhibitor/MIC of β-lactam alone+MIC of inhibitor with β-lactam/MIC of inhibitor alone
Unless noted otherwise, the FIC index was defined as the lowest value among all obtained values. The synergistic effect was defined as the effect observed when the FIC index value was ≤0.5.

[3] = molecular target: T1, NDM-1 (Klebsiella pneumoniae, UniProt C7C422); test: Inhibition of IPM hydrolysis by purified NDM-1, Ki by Lineweaver-Burk plots; format: biochemical; conditions: IPM as substrate, competitive model, mean of three replicates; read-out: Inhibition constant Ki NDM-1
T1 construct: made in house
Description: (§1) MBL (10 nM) was mixed with the inhibitors and incubated for 5 min at 30°C. IPM was added to reach a concentration of 150 μM, and the velocity of IPM hydrolysis was monitored at 298 nm. The assay was performed at 30°C using 10 mM HEPES (pH 7.5) buffer containing 200 mM NaCl and 50 μg/ml bovine serum albumin (BSA) for IMP-1, NDM-1, VIM-2, and SMB-1. For SFH-1 and L1, another 10 mM HEPES (pH 7.5) buffer containing 200 mM NaCl, 20 μM ZnSO4, and 50 μg/ml BSA was used.
(§2) Initial velocities (vo) were measured after varying the concentrations of IPM and inhibitors, and inverse velocities (1/vo) were plotted against inverse IPM concentrations […]. Lineweaver-Burk plots were constructed to obtain the inhibition constant (Ki) with the competitive inhibition model using the SigmaPlot 13 suite (Hulinks).

[4] = molecular target: T2, VIM-2 (Escherichia coli, UniProt Q5U7L7); test: Inhibition of IPM hydrolysis by purified VIM-2, Ki by Lineweaver-Burk plots; format: biochemical; conditions: IPM as substrate, competitive model, mean of three replicates; read-out: Inhibition constant Ki VIM-2
T2 construct: made in house
Description: as §1, §2

[5] = molecular target: T3, IMP-1 (Serratia marcescens, UniProt P52699); test: Inhibition of IPM hydrolysis by purified IMP-1, Ki by Lineweaver-Burk plots; format: biochemical
T3 construct: made in house
Description: as §1, §2

T3 sequence (P52699 19-246 limits assumed): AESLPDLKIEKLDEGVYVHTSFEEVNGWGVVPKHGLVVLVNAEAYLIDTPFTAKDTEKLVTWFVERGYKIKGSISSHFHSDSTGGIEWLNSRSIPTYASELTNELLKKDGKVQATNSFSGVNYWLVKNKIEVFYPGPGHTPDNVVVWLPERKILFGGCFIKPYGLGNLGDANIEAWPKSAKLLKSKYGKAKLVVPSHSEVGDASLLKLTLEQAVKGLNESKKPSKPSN
T1 sequence (C7C422 29-270 limits assumed): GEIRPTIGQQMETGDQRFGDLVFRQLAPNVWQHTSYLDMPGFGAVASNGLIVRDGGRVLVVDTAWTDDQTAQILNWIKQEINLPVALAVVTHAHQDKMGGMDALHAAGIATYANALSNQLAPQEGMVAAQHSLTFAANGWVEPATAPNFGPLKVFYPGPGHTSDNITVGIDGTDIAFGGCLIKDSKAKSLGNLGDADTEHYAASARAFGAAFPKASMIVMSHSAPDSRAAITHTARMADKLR

N[C@H](CN[C@H](CN[C@@H](CC(=O)O)C(=O)O)C(=O)O)C(=O)O [AMA, Aspergillomarasmine A]
Selectivity between IMP and NDM/VIM producers [1]: superior for NDM/VIM

O=C(O)c1ncsc1NS(=O)(=O)c1cccnc1 [ANT431]
Selectivity between IMP and NDM/VIM producers [1]: superior for NDM/VIM

CC(C)(O/N=C(\C(=O)N[C@@H]1C(=O)N2C(C(=O)[O-])=C(C[n+]3ccccc3)CS[C@H]12)c1csc(N)n1)C(=O)O [CAZ, ceftazidime, reference compound]
MIC [2]: 16 µg/mL

NS(=O)(=O)c1sccc1C(=O)O [Compound 1]
pKi [3]: 5.11
pKi [4]: 4.81
pKi [5]: 4.47

NS(=O)(=O)c1sc(Cl)cc1C(=O)O [Compound 2]
pKi [3]: 4.71
pKi [4]: 5.64
pKi [5]: 4.72

CCc1oc(CC)c(S(N)(=O)=O)c1C(=O)O [Compound 4, 2,5-diethyl-4-sulfamoylfuran-3-carboxylic acid]
pKi [3]: 6.04
pKi [4]: 6.00
pKi [5]: 6.52

CCCc1oc(CCC)c(S(N)(=O)=O)c1C(=O)O [Compound 5, 2,5-dipropyl-4-sulfamoylfuran-3-carboxylic acid]
pKi [3]: 6.29
pKi [4]: 6.34
pKi [5]: 6.42

NS(=O)(=O)c1c(C2CCCC2)oc(C2CCCC2)c1C(=O)O [Compound 6, 2,5-dicyclopentyl-4-sulfamoylfuran-3-carboxylic acid]
pKi [3]: 6.60
pKi [4]: 6.12
pKi [5]: 5.90
